What was measured:
[1] = microsomes
human granulosa cells [2] = assay: Estradiol production by human granulosa cells from individual patients by diagnosis (NOR, ARA, PCOS); format: cell-based
Experimental: (§1) Human granulosa cells were prepared from the spent follicular fluid of women undergoing IVF treatment at Boston IVF Center (Waltham, MA, United States) and at Family Fertility Center (Baylor College of Medicine, Houston, TX, United States) following methods previously established ([Breckwoldt et al., 1996]; [Amsterdam et al., 2003]). Institutional review board approval and informed consent from the patients were obtained before collecting the follicular fluid samples. In brief, red blood cells (RBCs) in the follicular aspirate were lyzed using RBC lysis buffer (Quality Biological Inc., Gaithersburg, MD, United States), and washed extensively with PBS and DMEM/F12 containing 5% FBS, fungizone, and the antibiotics penicillin (100 IU/ml) and streptomycin (100 μg/ml). Subsequently, cells from the aspirate were plated in T75 flasks, cultured for 7 days with fresh media being replaced every other day. At the end of the culture period, cells were released from the flask by trypsin and transferred to 96-well plates (5,000 cells/well, Greiner Bio-One). Following 48 h of culture, media in culture wells was replaced with serum free media containing 0.1% BSA and 10^−7 M androstenedione. Following 24 h of serum starvation, cells were stimulated with fresh media (0.1% BSA, 10^−7 M androstenedione) with FSH or compound for 48 h. Supernatant was collected and stored at −80C for determination of estradiol by ELISA.
Clinical definitions of patient sub-populations for patients at Texas Fertility followed guidelines outlined by the Practice Committee of the American Society for Reproductive Medicine ([Practice Committee of the American Society for Reproductive Medicine, 2015]). […] Advanced reproductive age (ARA) was defined as woman of 35 years old or greater in age, based on the definition of advanced maternal age by Society for Maternal-Fetal Medicine. Polycystic Ovarian Syndrome (PCOS) is a patient with two out of the three Rotterdam criteria ([Rotterdam ESHRE/ASRM-Sponsored PCOS Consensus Workshop Group, 2004]) which includes hyperandrogenism (hirsutism or biochemical), oligomenorrhea or amenorrhea, and/or polycystic ovaries on ultrasound.

hTSHR = molecular target: T1, hTSHR (Homo sapiens, UniProt P16473); assay: cAMP (HTRF) in CHO cells transfected with hTSHR; format: cell-based; details: for Ratio of EC50 TSHR/FSHR: CHO assays; for EC50: compounds in presence of EC20 ligand (Figure 1 legend); for EC50 / % Response, CHO-hTSHR: mean ± SEM; for % Response, CHO-hTSHR: maximal cAMP vs maximal response of TSH
T1 construct: expressed in transfected cells
Experimental: (§2) Chinese hamster ovary (CHO) cells transfected with hFSHR, hLHR or hTSHR were grown as described previously ([Kelton et al., 1992]; [Persani et al., 1993]; [Yu et al., 2014]). In brief, CHO-hFSHR and CHO-hTSHR were maintained in DMEM/F12 + 10% FBS in T150 culture flasks. The cells were cultured until they reached 70–80% confluence (three days) and were then used for assays or passaged. CHO-hLHR ([van de Lagemaat et al., 2009]; [Sriraman et al., 2014]) was cultured in MEM alpha (++) +10% FBS and G418, and passaged every three days. CHO-hFSHR or −hLHR or −hTSR cells (2,500/well) were plated in 5 µL of phenol red free DMEM/F12 + 1% FBS in 384 well solid white low volume plates (Greiner 784075) by Multidrop. […] The plates were incubated at 37°C for 1 h. After the incubation period, cAMP was measured by HTRF® (homogeneous time-resolved fluorescence) assay (CisBio, Bedford, MA). In brief, conditioned media were incubated with cryptate-labeled cAMP antibody and d2-labeled cAMP in lysis buffer for 1 h. Free cAMP produced by cells competes with cAMP-d2 for binding to the anti-cAMP cryptate. An increase in cellular cAMP leads to a decrease in fluorescence resonance energy transfer, which is detectable as a decrease in the emission at 665 nm, measured by Envision fluorescence reader (PerkinElmer, Waltham, MA). The readout was calculated fluorescence ratio (665/620 nm). Values given in percent (%) indicate the percent response at a certain concentration of agonist relative to the maximum response of the protein ligand standard.

human granulosa cells [3] = assay: Estradiol production from pooled human granulosa-lutein cells (Boston IVF); format: cell-based; details: for EC50: pooled granulosa-lutein cells from two patients (Figure 4A), read-out: EC50, 17β-estradiol production; for maximal 17β-estradiol response: three patients (Figure 4B)
Experimental: as §1

hFSHR = molecular target: T2, hFSHR (Homo sapiens, UniProt P23945); assay: cAMP (HTRF) in CHO cells transfected with hFSHR; format: cell-based; details: for EC50: compounds in presence of EC20 ligand (Figure 1 legend); for EC50 / % Response, CHO-hFSHR: mean ± SEM; for % Response, CHO-hFSHR: maximal cAMP vs maximal response of protein ligand FSH
T2 construct: expressed in transfected cells
T2 sequence (P23945 18-695): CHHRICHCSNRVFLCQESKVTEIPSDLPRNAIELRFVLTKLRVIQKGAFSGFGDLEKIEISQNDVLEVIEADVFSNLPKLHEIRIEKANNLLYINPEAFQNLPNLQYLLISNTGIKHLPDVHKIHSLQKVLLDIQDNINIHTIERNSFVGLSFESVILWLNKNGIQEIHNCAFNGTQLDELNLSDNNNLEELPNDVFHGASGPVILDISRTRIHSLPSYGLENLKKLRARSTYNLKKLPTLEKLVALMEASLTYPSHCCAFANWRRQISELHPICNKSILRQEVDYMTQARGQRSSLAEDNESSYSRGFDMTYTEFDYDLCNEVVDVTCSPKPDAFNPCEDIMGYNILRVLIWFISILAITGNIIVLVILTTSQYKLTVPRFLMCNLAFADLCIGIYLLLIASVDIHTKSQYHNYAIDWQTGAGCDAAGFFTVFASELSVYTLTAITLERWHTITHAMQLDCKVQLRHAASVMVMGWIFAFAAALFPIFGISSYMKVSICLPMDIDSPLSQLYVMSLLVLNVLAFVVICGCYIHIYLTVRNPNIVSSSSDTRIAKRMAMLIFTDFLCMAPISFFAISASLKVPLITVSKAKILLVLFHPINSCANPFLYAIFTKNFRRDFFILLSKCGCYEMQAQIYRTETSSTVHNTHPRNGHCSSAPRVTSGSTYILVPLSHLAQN
Experimental: as §2

beagle dogs = assay: 14-day toxicity and toxicokinetics in Beagle dog; format: in vivo
Experimental: Male and female beagle dogs were received from Beijing Marshall Biotechnology Co., Ltd (Beijing, China) and group housed at Covance (Shanghai, China), except for 5 h each day in stainless steel cages for study-related procedures. […] Blood samples (approximately 1.0 ml) were collected for thyroid hormone analysis on Days 0, prior to dosing, 24 h post dose (prior to second dose on Day 2) and once prior to dosing on Day 14. Blood was collected into serum separator tubes (without anticoagulant), allowed to clot at room temperature, and centrifuged for approximately 10 min in a refrigerated centrifuge at approximately at 3,500 g within 2 h of collection. Serum was harvested and placed in a freezer for subsequent thyroid hormone measurement.

[4] = microsomes; remark: listed apart in the source

T1 sequence (P16473 21-764): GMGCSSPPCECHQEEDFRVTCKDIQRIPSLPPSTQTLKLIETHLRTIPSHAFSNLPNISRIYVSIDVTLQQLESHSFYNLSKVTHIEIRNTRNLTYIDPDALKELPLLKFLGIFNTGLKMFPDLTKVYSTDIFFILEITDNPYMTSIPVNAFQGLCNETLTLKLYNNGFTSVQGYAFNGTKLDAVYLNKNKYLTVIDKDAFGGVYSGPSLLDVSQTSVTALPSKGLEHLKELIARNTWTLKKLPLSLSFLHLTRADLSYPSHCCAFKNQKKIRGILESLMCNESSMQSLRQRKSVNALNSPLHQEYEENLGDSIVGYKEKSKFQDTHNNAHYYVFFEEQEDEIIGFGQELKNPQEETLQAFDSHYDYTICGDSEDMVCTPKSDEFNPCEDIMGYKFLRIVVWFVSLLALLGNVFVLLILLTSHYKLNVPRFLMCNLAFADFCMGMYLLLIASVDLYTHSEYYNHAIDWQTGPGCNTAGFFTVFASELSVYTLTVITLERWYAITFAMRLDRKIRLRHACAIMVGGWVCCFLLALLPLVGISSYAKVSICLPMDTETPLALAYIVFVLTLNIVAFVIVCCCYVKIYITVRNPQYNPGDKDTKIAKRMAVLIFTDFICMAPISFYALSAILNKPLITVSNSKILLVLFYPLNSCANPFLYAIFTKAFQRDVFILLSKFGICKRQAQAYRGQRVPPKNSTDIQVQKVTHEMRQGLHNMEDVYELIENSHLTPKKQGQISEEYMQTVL

Row | Structure (SMILES) | Clint, monkey [1] [µl/min/mg protein] | fold higher concentration than rec-hFSH required to stimulate maximum estradiol production (human granulosa cells [2]) | Estradiol (pg/ml), ARA (n = 6) (human granulosa cells [2]; FSH (20 nM) or TOP5300 (400 nM), advanced reproductive age, mean ± SD) | Estradiol (pg/ml), NOR (n = 2) (human granulosa cells [2]; FSH (20 nM) or TOP5300 (400 nM), normal ovarian reserve, mean) | Estradiol (pg/ml), PCOS (n = 4) (human granulosa cells [2]; FSH (20 nM) or TOP5300 (400 nM), polycystic ovarian disease, mean ± SD) | Ratio of EC50 TSHR/FSHR (hTSHR) | EC50 (hTSHR) [nM] | % Response, CHO-hTSHR (hTSHR) [%] | EC50 (human granulosa cells [3]) [nM] | maximal 17β-estradiol response (human granulosa cells [3]; second culture) [ng/mL] | EC50 (hFSHR) [nM] | % Response, CHO-hFSHR (hFSHR) [%] | mortality or morbidity, dog (beagle dogs; 14 days, up to 1,000 mg/kg) | NOAEL, dog (beagle dogs; dog, in vivo, po) | Clint, rat [4] [µl/min/mg protein] | fold more potent than TOP5300, 17β-estradiol production (human granulosa cells [3]; pooled cells from two patients (Figure 4A)) [fold] | fold greater maximal estradiol response than rec-hFSH (human granulosa cells [3]; pooled human granulosa cells, second culture (Figure 4B)) | potency shift to the left of TOP5300 (human granulosa cells [3]; second culture, pooled cells from three patients (Figure 4B)) [fold] | fold more potent than TOP5300 in hFSHR-AA activity (hFSHR; CHO-hFSHR)
1 | COc1cc2c(cc1-c1cnn(CCO)c1)-c1c(c(C(=O)N(C)C(C)(C)C)nn1-c1cc(Cl)cc(Cl)c1)CO2 [TOP5300] | 165 | approximately 20 fold | 10,648 ± 7,338 pg/ml | 4,829 pg/ml | 1,276 + 1,563 pg/ml | 52 | 505 | 84.97 ± 0.85 | 474 | 200 | 9.72 | 98.4 ± 0.31 | no mortality or morbidity occurred | 1,000 mg/kg/day | 11 | – | – | – | –
2 | COc1cc(C(N)=O)cc(-c2cc3c(cc2OC)OCc2c(C(=O)N(C)C(C)(C)C)nn(-c4cc(Cl)cc(Cl)c4)c2-3)n1 [TOP5668] | 117 | – | – | – | – | 77 | 170 | 92.28 ± 0.88 | 15 | 200 | 2.2 | 100.75 ± 0.51 | – | – | 7 | 30 | approximately 7 fold | ~100 | 3-4 fold
